Results as given in patent US9061030B2, “sGC stimulators” (IRONWOOD PHARMACEUTICALS, INC., priority 2010, dated 2015).

Columns and labels:
[1] = biological target: T1, Human soluble guanylate cyclase enzyme (hsGC) (Homo sapiens, UniProt Q02108+Q02153); assay: Purified human sGC enzyme activity assay (with or without SNP); assay type: biochemical; settings: 30 μM compound; for sGC Enzyme Activity Increase at 30 μM with SNP: 1 μM SNP, specific activity vs DMSO and SNP; for sGC Enzyme Activity Increase at 30 μM without SNP: specific activity vs DMSO control
T1 construct: purchased Enzo Inc. ALX-201-177
T1 sequence (Q02153 1-619): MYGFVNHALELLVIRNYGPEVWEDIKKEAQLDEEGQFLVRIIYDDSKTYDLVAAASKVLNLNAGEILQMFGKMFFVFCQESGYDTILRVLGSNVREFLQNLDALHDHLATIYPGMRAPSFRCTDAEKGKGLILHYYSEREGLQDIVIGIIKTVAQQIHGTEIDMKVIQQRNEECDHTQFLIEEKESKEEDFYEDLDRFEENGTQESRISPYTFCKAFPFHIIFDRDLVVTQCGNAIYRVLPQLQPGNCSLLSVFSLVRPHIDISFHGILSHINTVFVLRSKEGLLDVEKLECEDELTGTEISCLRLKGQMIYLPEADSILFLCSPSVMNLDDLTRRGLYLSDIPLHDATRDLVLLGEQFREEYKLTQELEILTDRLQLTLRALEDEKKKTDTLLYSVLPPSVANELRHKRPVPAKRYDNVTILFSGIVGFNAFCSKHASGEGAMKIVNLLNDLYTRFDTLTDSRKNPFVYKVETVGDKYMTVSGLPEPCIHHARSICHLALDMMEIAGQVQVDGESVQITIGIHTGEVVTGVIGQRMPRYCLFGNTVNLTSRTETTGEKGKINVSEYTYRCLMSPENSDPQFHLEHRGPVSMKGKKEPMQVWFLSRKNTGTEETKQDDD
T1 sequence (Q02108 1-690): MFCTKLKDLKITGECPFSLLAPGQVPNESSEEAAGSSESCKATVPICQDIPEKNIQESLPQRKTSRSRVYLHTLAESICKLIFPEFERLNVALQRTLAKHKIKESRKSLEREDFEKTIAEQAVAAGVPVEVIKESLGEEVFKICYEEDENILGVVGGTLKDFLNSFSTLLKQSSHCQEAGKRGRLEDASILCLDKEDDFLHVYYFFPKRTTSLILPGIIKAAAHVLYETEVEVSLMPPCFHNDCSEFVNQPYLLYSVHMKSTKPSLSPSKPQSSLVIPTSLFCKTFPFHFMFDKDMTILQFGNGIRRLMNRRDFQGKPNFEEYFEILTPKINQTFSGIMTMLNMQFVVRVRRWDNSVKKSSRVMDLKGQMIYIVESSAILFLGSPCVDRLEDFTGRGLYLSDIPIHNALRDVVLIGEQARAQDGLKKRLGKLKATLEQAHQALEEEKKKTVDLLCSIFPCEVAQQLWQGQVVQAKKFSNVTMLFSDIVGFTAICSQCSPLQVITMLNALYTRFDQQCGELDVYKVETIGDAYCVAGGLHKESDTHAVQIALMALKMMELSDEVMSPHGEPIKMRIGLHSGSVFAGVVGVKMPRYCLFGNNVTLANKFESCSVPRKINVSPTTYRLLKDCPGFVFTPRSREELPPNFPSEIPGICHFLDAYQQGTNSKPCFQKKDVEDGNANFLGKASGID
Experimental: Human soluble guanylate cyclase enzyme (hsGC) obtained from Enzo Inc. (P/N: ALX-201-177) was used to evaluate the activity of test compounds. The assay reactions contained 0.1 M Tris (pH 8.0), 0.5 mg/mL BSA (pH 8.0), 2 mM DTT, 2 mM MgCl2, 300 μM GTP, 1 mM 3-isobutyl-1-methylxanthine (IBMX) and 5 ng human soluble guanylate cyclase enzyme. Test compounds in DMSO were then added (2 μL, 10 or 30 μM final concentration) and incubated (200 μL, 96-well plate format) at 37° C. for 30 minutes. The controls were carried out using 2 μL DMSO. After the 30 minute incubation, the reaction was stopped with the addition of 200 μL of cold methanol. The plate was then centrifuged at 3,200 rpm for 10 minutes at room temperature. Supernatants (200 μL) were collected and transferred to a new 96 well plate for analysis.
An 8 point cGMP (Sigma-Aldrich P/N: G6129) standard curve was prepared in assay buffer ranging from 0.156-20 μM. Samples for the cGMP standard curve were then diluted with an equal volume of methanol resulting in final cGMP concentrations of 0.078-10 μM.
The cGMP standard curve was generated using GraphPad Prism Software.
Calculations: Specific Activity was determined by the amount of cGMP formed (nmoles) per mg of sGC per min. Enzyme activity “fold-change” was calculated by dividing the Specific Activity for a test compound by the Specific Activity of DMSO control.
The enzymatic activity fold-change of the purified human sGC enzyme determined in the presence of each of the test compounds individually at 10 or 30 μm without the addition of sodium nitroprusside (SNP), a nitric oxide donor, is presented in Table 5.
Enzyme assays were also performed as described above, but in the presence of 1 μM sodium nitroprusside (SNP). Enzymatic activity fold-changes are reported for selected test compounds in the presence of both SNP and the test compound. These were calculated by dividing the specific activity (activity increase) for the test compound dissolved in DMSO and SNP over the specific activity for the mixture of DMSO and SNP.

[2] = biological target: T2, soluble guanylate cyclase (sGC) (Homo sapiens, UniProt Q02108+Q02153); assay: sGC-HEK-cGMP assay; assay type: cell-based; settings: HEK293 cells, 10 μM SNP, percentage of sGC activity obtained with positive control BAY 41-2272 (= 100%); for Emax at 10 µM: compound at 10 μM; for Emax at 30 µM: compound at 30 μM
T2 construct: endogenously expressing soluble guanylate cyclase (sGC); endogenous in cells; host or cells: HEK293
T2 sequence (Q02153 1-619): T1 sequence (Q02153 1-619)
T2 sequence (Q02108 1-690): T1 sequence (Q02108 1-690)
Experimental: Human embryonic kidney cells (HEK293), endogenously expressing soluble guanylate cyclase (sGC), were used to evaluate the activity of the test compounds. Compounds stimulating the sGC receptor should cause an increase in the intracellular concentration of cGMP. HEK 293 cells were seeded in Dulbecco's Modification of Eagle's Medium supplemented with fetal bovine serum (10% final) and L-glutamine (2 mM final) in a 200 μL volume at a density of 1×10^5 cells/well in a poly-D-lysine coated 96 well flat bottom plate and grown overnight at 37° C. Medium was aspirated and cells were washed with 1× Hank's Buffered Saline Salt Solution (200 μL). Cells were then incubated for 15 minutes at 37° C. with 0.5 mM 3-isobutyl-1-methylxanthine (200 μL). Test article was then added to the assay mixture (2 μL) and incubated in the presence of 10 μM Sodium Nitroprusside (SNP) at 37° C. for 10 minutes. After the 10 minute incubation, the assay mixture was aspirated and 0.1M HCl (200 μL) was added to the cells. The plate was incubated at 4° C. for 30 minutes in the 0.1M HCl to stop the reaction and lysed the cells. The plates were then centrifuged at 1,200 g for 5 minutes at room temperature. Supernatants were collected and transferred to a new flat bottom 96 well plate for analysis. Vehicle controls were carried out using DMSO (1%). A known sGC stimulator, BAY 41-2272, was used as the positive control.
Samples were diluted with an equal volume of 1 M Ammonium Acetate (pH 7) to neutralize samples for better chromatography. A 2×cGMP standard curve was prepared in 0.1 M HCl and then diluted with an equal volume of 1 M Ammonium Acetate, with the following final concentrations in nM: 1024, 512, 256, 128, 64, 32, 16, 8, 4, 2, 1.cGMP concentrations were determined from each sample using the LC/MS conditions (Table 2 below) and calculated standard curve. EC50 values were calculated from concentration-response curves generated with GraphPad Prism Software.
The biological activities of some of the compounds according to Formula IA or Formula IB determined with the sGC-HEK assay are summarized in Table 3 below.

sGC Enzyme Activity Increase at 30 μM with SNP [1]	sGC Enzyme Activity Increase at 30 μM without SNP [1]	Emax at 10 µM [2] [%]	Emax at 30 µM [2] [%]	Structure (SMILES)
B (B = 1 to <2 fold increase)	B (B = 1 to <2 fold increase)	0 to 5	0 to 5	Fc1ccccc1Cn1nc(-c2cocn2)nc1-c1ncccn1 [Compound I-45]
C (C = 2 to <5 fold increase)	C (C = 2 to <5 fold increase)	10 to 20	10 to 20	Fc1ccccc1Cn1nc(-c2ncccn2)nc1-c1ccco1 [Compound I-11]
B (B = 1 to <2 fold increase)	B (B = 1 to <2 fold increase)	0 to 5	0 to 5	Fc1ccccc1Cn1nc(-c2cscn2)nc1-c1ncccn1 [Compound I-20]
C (C = 2 to <5 fold increase)	B (B = 1 to <2 fold increase)	0 to 5	5 to 10	Fc1ccccc1Cn1nc(-c2cscn2)nc1-c1cnccn1 [Compound I-55]

Continued, compound first:

Structure (SMILES)	sGC Enzyme Activity Increase at 30 μM with SNP [1]	sGC Enzyme Activity Increase at 30 μM without SNP [1]	Emax at 10 µM [2] [%]	Emax at 30 µM [2] [%]
Fc1ccccc1Cn1nc(-c2cc(Br)ccn2)nc1-c1nccs1 [Compound I-36, 2-(3-(4-bromopyridin-2-yl)-1-(2-fluorobenzyl)-1H-1,2,4-triazol-5-yl)thiazole]	B (B = 1 to <2 fold increase)	B (B = 1 to <2 fold increase)	0 to 5	0 to 5
Fc1ccccc1Cn1nc(-c2cscn2)nc1-c1cc(Br)ccn1 [Compound I-52, 4-(5-(4-bromopyridin-2-yl)-1-(2-fluorobenzyl)-1H-1,2,4-triazol-3-yl)thiazole]	B (B = 1 to <2 fold increase)	B (B = 1 to <2 fold increase)	0 to 5	0 to 5
Fc1ccccc1Cn1nc(-c2cnccn2)nc1-c1cscn1 [Compound I-56]	D (D = 5 to <10 fold increase)	B (B = 1 to <2 fold increase)	10 to 20	40 to 60
Fc1ccccc1Cn1nc(-c2ccccn2)nc1-c1ccccc1 [Compound I-2]	C (C = 2 to <5 fold increase)	D (D = 5 to <10 fold increase)	5 to 10	5 to 10
Fc1ccccc1Cn1nc(-c2cc(Br)ccn2)nc1-c1cscn1 [Compound I-51, 4-(3-(4-bromopyridin-2-yl)-1-(2-fluorobenzyl)-1H-1,2,4-triazol-5-yl)thiazole]	E (E = 10 to <20 fold increase)	C (C = 2 to <5 fold increase)	20 to 40	20 to 40
Fc1ccccc1Cn1nc(-c2ccccn2)nc1C1CCC1 [Compound I-24]	C (C = 2 to <5 fold increase)	C (C = 2 to <5 fold increase)	5 to 10	10 to 20
Fc1ccccc1Cn1nc(-c2cc(N3CCOCC3)ccn2)nc1-c1cocn1 [Compound I-68, 4-(2-(1-(2-fluorobenzyl)-5-(oxazol-4-yl)-1H-1,2,4-triazol-3-yl)pyridin-4-yl)morpholine]	E (E = 10 to <20 fold increase)	C (C = 2 to <5 fold increase)	20 to 40	40 to 60
Fc1ccccc1Cn1nc(-c2ccccn2)nc1C1CC1 [Compound I-21]	B (B = 1 to <2 fold increase)	B (B = 1 to <2 fold increase)	0 to 5	0 to 5
Fc1ccccc1Cn1nc(-c2nccs2)nc1-c1cccc(Br)n1 [Compound I-18, 2-(5-(6-bromopyridin-2-yl)-1-(2-fluorobenzyl)-1H-1,2,4-triazol-3-yl)thiazole]	C (C = 2 to <5 fold increase)	B (B = 1 to <2 fold increase)	0 to 5	0 to 5
